Test results from patent US20070167452A1, “Therapeutic amide derivatives” (PFIZER, INC., priority 2004, published 2007).
Like-named read-outs stand apart in the source and are kept apart here.

Experiments:
[1] = molecular target: T1, NR2B receptor (Rattus norvegicus, UniProt P35439+Q00960); assay: NR2B Binding Assay; conditions: for IC50: forebrain P2 membranes of male CD rats, 5 nM [3H] NR2B ligand
T1 construct: Membranes were prepared by homogenization of forebrain of male CD rats; from tissue; host or cells: forebrain of male CD rats (P2 membrane)
Description: The activity of the cycloalkylene amide compounds of the present invention, as NR2B antagonists, is determined by their ability to inhibit the binding of NR2B subunit at its receptor sites employing radioactive ligands.
The NR^2B antagonist activity of the cycloalkylene amide compounds is evaluated by using the standard assay procedure described in, for example, J. Pharmacol., 331, pp 117-126, 1997. This method essentially involves determining the concentration of the individual compound required to reduce the amount of radiolabelled NR2B ligands by 50% at their receptor sites, thereby affording characteristic IC50 values for each compound tested. More specifically, the assay is carried out as follows.
Membranes were prepared by homogenization of forebrain of male CD rats weighing between 170˜190 g by using glass-Teflon homogenizer in 0.32 M sucrose at 4° C. The crude nuclear pellet was removed by centrifugation at 1000×g for 10 min, and the supernatant centrifuged at 17000×g for 25 min. The resulting pellet was resuspended in 5 mM Tris acetate pH 7.4 at 4° C. for 10 min to lyse cellular particles and again centrifuged at 17000×g. The resulting pellet (P2 membrane) was washed twice in Tris acetate, resuspended at 5.5 mg protein/ml and stored at −20° C. until use. All the manipulation was done on ice, and stock solution and equipment were kept on ice at all time.
For the saturation assay, receptor saturation was determined by incubating [^3H]-1-[(1S*,2S*)-2-hydroxy-2-(4-hydroxyphenyl)-1-methylethyl]-4-phenylpiperidin-4-ol and 50 μg protein of P2 membrane for 60 minutes at room temperature in a final 100 μl of incubation buffer (50 mM Tris HCl, pH7.4). Total and non-specific bindings (in the presence of 10 μM of unlabeled 1-[(1S*,2S*)-2-hydroxy-2-(4-hydroxyphenyl)-1-methylethyl]-4-phenylpiperidin-4-ol) were determined in a range of [^3H]-1-[(1S*,2S*)-2-hydroxy-2-(4-hydroxyphenyl)-1-methylethyl]-4-phenylpiperidin-4-ol concentrations (0.625 nM to 60 nM).
For the competition assay, test compounds were incubated in duplicate with 5 nM [^3H]-1-[(1S*,2S*)-2-hydroxy-2-(4-hydroxyphenyl)-1-methylethyl]-4-phenylpiperidin-4-ol and 50 μg protein of P2 membrane for 60 minutes at room temperature in a final 100 μl of 50 mM Tris HCl buffer (pH7.4). Nonspecific binding was determined by 10 μM of unlabeled 1-[(1S*,2S*)-2-hydroxy-2-(4-hydroxyphenyl)-1-methylethyl]-4-phenylpiperidin-4-ol (25 μl). The saturation derived KD gained in saturation assay was used for all Ki calculations.
All incubations were terminated by rapid vacuum filtration over 0.2% polyethyleneimine soaked Whatman GF/B glass fibre filter paper using a SKATRON cell harvester followed by three washes with ice-cold filtration buffer (5 mM Tris HCl, pH 7.4.). Receptor-bound radioactivity was quantified by liquid scintillation counting using Packard LS counter. Competition assays were performed by counting Wallac GF/B filters on Betaplate scintillation counter (Wallac).

[2] = molecular target: T2, Human HERG (Homo sapiens, UniProt Q12809); assay: Human Dofetilide Binding Assay
Description: (§1) Human HERG transfected HEK293S cells were prepared and grown in-house. The collected cells were suspended in 50 mM Tris-HCl (pH 7.4 at 4° C.) and homogenized using a hand held Polytron PT 1200 disruptor set at full power for 20 sec on ice. The homogenates were centrifuged at 48,000×g at 4° C. for 20 min. The pellets were then resuspended, homogenized, and centrifuged once more in the same manner. The final pellets were resuspended in an appropriate volume of 50 mM Tris-HCl, 10 mM KCl, 1 mM MgCl2 (pH 7.4 at 4° C.), homogenized, aliquoted and stored at −80° C. until use. An aliquot of membrane fractions was used for protein concentration determination using BCA protein assay kit (PIERCE) and ARVOsx plate reader (Wallac).
(§2) Binding assays were conducted in a total volume of 200 μl in 96-well plates. Twenty μl of test compounds were incubated with 20 μl of [^3H]-dofetilide (Amersham, final 5 nM) and 160 μl of membrane homogenate (25 μg protein) for 60 minutes at room temperature. Nonspecific binding was determined by 10 μM dofetilide at the final concentration. Incubation was terminated by rapid vacuum filtration over 0.5% presoaked GF/B Betaplate filter using Skatron cell harvester with 50 mM Tris-HCl, 10 mM KCl, 1 mM MgCl2, pH 7.4 at 4° C. The filters were dried, put into sample bags and filled with Betaplate Scint. Radioactivity bound to filter was counted with Wallac Betaplate counter.

[3] = molecular target: T2, Human HERG
Description: as §1, §2

T2 sequence (Q12809 whole entry): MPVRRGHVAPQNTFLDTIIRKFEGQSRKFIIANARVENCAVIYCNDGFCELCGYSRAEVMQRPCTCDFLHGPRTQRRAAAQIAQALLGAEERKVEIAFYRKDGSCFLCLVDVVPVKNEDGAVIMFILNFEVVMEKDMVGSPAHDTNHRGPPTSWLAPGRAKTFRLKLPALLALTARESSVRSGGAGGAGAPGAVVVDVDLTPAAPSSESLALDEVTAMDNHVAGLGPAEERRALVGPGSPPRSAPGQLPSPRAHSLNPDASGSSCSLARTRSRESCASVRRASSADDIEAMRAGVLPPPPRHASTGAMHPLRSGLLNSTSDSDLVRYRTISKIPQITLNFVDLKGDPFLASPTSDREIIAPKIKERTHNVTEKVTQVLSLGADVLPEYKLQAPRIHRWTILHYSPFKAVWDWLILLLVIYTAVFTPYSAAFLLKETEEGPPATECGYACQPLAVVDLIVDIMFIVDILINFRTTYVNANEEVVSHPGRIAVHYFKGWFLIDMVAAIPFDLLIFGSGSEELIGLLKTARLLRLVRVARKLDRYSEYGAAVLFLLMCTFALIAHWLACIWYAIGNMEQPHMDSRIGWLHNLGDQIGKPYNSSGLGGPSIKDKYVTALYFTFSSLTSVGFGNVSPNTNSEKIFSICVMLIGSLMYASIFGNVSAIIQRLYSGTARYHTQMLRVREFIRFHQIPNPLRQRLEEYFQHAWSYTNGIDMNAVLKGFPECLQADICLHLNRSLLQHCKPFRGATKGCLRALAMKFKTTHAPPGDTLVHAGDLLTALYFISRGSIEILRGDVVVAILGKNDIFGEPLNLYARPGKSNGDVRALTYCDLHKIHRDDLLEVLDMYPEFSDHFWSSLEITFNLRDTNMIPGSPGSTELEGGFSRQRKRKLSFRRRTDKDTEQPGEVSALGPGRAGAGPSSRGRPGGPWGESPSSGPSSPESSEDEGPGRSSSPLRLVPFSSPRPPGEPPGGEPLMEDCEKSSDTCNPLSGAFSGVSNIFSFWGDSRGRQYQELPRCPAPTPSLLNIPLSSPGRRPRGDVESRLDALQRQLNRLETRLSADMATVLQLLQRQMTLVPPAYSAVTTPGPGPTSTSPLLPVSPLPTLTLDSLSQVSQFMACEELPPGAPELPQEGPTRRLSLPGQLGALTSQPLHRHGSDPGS
T1 sequence (Q00960 27-1482, other chains not shown): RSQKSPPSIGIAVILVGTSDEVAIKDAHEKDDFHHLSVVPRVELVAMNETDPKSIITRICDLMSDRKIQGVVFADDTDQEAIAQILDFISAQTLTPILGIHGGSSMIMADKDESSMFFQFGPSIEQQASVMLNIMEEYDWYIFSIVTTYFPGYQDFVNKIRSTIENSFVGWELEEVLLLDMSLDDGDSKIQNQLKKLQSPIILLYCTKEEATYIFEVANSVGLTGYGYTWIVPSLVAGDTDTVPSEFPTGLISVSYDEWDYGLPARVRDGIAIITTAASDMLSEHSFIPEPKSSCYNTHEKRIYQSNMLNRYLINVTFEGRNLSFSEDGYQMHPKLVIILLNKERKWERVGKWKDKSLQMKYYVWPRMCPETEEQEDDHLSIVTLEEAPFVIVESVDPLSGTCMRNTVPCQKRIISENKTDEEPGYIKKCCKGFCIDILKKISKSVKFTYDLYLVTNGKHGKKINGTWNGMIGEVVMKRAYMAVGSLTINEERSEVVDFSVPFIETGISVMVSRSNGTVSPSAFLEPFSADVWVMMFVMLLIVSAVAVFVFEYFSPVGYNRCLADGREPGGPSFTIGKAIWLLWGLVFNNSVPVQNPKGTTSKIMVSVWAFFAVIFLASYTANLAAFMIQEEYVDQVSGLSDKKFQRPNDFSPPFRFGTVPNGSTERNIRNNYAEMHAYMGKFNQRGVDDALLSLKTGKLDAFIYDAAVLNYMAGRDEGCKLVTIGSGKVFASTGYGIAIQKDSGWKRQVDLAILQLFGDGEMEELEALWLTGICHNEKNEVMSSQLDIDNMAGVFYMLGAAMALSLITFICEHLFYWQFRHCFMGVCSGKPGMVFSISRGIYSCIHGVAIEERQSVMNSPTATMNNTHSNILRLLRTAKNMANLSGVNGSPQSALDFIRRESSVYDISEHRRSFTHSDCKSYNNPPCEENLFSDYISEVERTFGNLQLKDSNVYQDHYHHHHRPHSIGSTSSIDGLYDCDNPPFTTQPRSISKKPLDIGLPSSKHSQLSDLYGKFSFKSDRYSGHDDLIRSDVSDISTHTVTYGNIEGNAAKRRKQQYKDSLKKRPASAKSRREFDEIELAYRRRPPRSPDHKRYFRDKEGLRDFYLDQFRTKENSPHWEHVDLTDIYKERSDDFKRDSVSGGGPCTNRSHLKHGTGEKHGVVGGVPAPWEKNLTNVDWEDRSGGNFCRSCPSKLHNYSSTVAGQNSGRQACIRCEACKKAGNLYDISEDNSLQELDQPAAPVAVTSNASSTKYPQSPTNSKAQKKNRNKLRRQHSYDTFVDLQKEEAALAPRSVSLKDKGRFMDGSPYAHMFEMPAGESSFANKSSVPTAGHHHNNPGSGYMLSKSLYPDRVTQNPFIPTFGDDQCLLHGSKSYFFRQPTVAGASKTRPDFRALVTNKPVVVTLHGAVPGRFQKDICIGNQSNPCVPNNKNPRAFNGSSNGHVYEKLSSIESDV

| IC50 [1] [nM] | melting point [°C] | Ki ([1]; competition assay, rat forebrain P2 membranes, read-out: Ki value, binding affinity for the NR2B receptor) [nM] | Compound | IC50 [2] [nM] | IC50 [3] [nM] |
| --- | --- | --- | --- | --- | --- |
| 15.4 | 150.1 |  | O=C(NC[C@H]1CC[C@@H](COc2ccccc2)CC1)c1cn[nH]c1 [Example 73, N-{[cis-4-(Phenoxymethyl)cyclohexyl]methyl}-1H-pyrazole-4-carboxamide] | > 30000 |  |
| 23.4 | 189.1 |  | Cc1ccccc1OC[C@H]1CC[C@@](O)(CNC(=O)c2ccc(O)cc2)CC1 [Example 17, 4-Hydroxy-N-({trans-1-hydroxy-4-[(2-methylphenoxy)methyl]cyclohexyl}methyl)benzamide] | > 100000 |  |
| 7.7 | 203.1 |  | Cc1ccc(OC[C@H]2CC[C@@](O)(CNC(=O)c3ccc(O)cc3)CC2)cc1 [Example 19, 4-Hydroxy-N-({trans-1-hydroxy-4-[(4-methylphenoxy)methyl]cyclohexyl}methyl)benzamide] | > 100000 |  |
| 14.7 | 168.1 |  | O=C(NC[C@]1(O)CC[C@@H](Oc2ccc(Cl)cc2)CC1)c1ccc(O)c(F)c1 [Example 34, N-{[cis-4-(4-Chlorophenoxy)-1-hydroxycyclohexyl]methyl}-3-fluoro-4-hydroxybenzamide] | > 30000 |  |
| 15.2 | 201.4 |  | Cc1cccc(OC[C@H]2CC[C@@](O)(CNC(=O)c3ccc(O)cc3)CC2)c1 [Example 18, 4-Hydroxy-N-({trans-1-hydroxy-4-[(3-methylphenoxy)methyl]cyclohexyl}methyl)benzamide] | > 100000 |  |
| 19.8 | 208.2 |  | O=C(NC[C@]1(O)CC[C@H](COc2ccc(Cl)cc2)CC1)c1ccc(O)cc1 [Example 16, N-({trans-4-[(4-Chlorophenoxy)methyl]-1-hydroxycyclohexyl}methyl)-4-hydroxybenzamide] | > 100000 |  |
| 12 | 186 |  | O=C(NC[C@]1(O)CC[C@H](COc2cccc(F)c2)CC1)c1ccc(O)cc1 [Example 10, N-({trans-4-[(3-Fluorophenoxy)methyl]-1-hydroxycyclohexyl}methyl)-4-hydroxybenzamide] | 25800 |  |
| 30 | 102.4 |  | O=C(NC[C@]1(O)CC[C@H](COc2cc(F)cc(F)c2)CC1)c1ccc(O)cc1 [Example 13, N-({trans-4-[(3,5-Difluorophenoxy)methyl]-1-hydroxycyclohexyl}methyl)-4-hydroxybenzamide] | 62600 |  |
| 25.5 | 162.9 |  | O=C(NC[C@]1(O)CC[C@H](OCc2ccccc2F)CC1)c1ccc(O)cc1 [Example 48, N-({trans-4-[(2-Fluorobenzyl)oxy]-1-hydroxycyclohexyl}methyl)-4-hydroxybenzamide] | > 100000 |  |
| 16.9 | 196.2 |  | Cc1ccc(OC[C@H]2CC[C@@](O)(CNC(=O)c3ccc(O)cc3)CC2)nc1 [Example 67, 4-Hydroxy-N-[(trans-1-hydroxy-4-{[(5-methylpyridin-2-yl)oxy]methyl}cyclohexyl)methyl]benzamide] | > 30000 |  |
| 8.5 | 185 | 6.2 | O=C(NC[C@]1(O)CC[C@H](COc2ccccc2F)CC1)c1ccc(O)cc1 [Example 11, N-({trans-4-[(2-Fluorophenoxy)methyl]-1-hydroxycyclohexyl}methyl)-4-hydroxybenzamide] | > 100000 |  |
| 21.8 | 167.6 |  | O=C(NC[C@]1(O)CC[C@H](COCc2ccc(F)cc2)CC1)c1ccc(O)cc1 [Example 24, N-[(trans-4-{[(4-Fluorobenzyl)oxy]methyl}-1-hydroxycyclohexyl)methyl]-4-hydroxybenzamide] | 97000 |  |
| 21 | 164.9 |  | O=C(NC[C@]1(O)CC[C@H](COc2cccc(Cl)c2)CC1)c1ccc(O)cc1 [Example 15, N-({trans-4-[(3-Chlorophenoxy)methyl]-1-hydroxycyclohexyl}methyl)-4-hydroxybenzamide] | 20700 |  |
| 18.2 | 162.5 |  | O=C(NC[C@]1(O)CC[C@H](COCc2ccccc2)CC1)c1ccc(O)c(F)c1 [Example 60, N-({trans-4-[(Benzyloxy)methyl]-1-hydroxycyclohexyl}methyl)-3-fluoro-4-hydoxybenzamide] | > 100000 |  |
| 26.5 | 155.9 |  | O=C(NC[C@]1(O)CC[C@H](COCc2ccc(F)cc2)CC1)c1ccc(O)c(F)c1 [Example 64, 3-Fluoro-N-[(trans-4-{[(4-fluorobenzyl)oxy]methyl}-1-hydroxycyclohexyl)methyl]-4-hydroxybenzamide] | > 100000 |  |
| 7.5 | 176.4 |  | O=C(NC[C@]1(O)CC[C@H](COc2ccc(F)cc2)CC1)c1ccc(O)cc1 [Example 9, N-({trans-4-[(4-Fluorophenoxy)methyl]-1-hydroxcyclohexyl}methyl)-4-hydroxybenzamide] | 26300 |  |
| 30.2 | 175.1 |  | O=C(NC[C@]1(O)CC[C@H](CCOc2ccccc2F)CC1)c1cn[nH]c1 [Example 56, N-({trans-4-[2-(2-Fluorophenoxy)ethyl]-1-hydroxycyclohexyl}methyl)-1H-pyrazole-4-carboxamide] | > 100000 |  |
| 6.2 | 164 |  | O=C(NC[C@]1(O)CC[C@H](CCOc2ccccc2)CC1)c1ccc(O)c(F)c1 [Example 63, 3-Fluoro-4-hydroxy-N-{[trans-1-hydroxy-4-(2-phenoxyethyl)cyclohexyl]methyl}benzamide] | > 30000 |  |
| 11.4 | 165.7 |  | O=C(NC[C@]1(O)CC[C@H](COCc2ccccc2)CC1)c1ccc(O)cc1 [Example 21, N-({trans-4-[(Benzyloxy)methyl]-1-hydroxycyclohexyl}methyl)-4-hydroxybenzamide] | > 100000 |  |
| 28.6 | 167.6 |  | O=C(NC[C@]1(O)CC[C@H](COCc2cccc(F)c2)CC1)c1ccc(O)cc1 [Example 23, N-[(trans-4-{[(3-Fluorobenzyl)oxy]methyl}-1-hydroxycyclohexyl)methyl]-4-hydroxybenzamide] | > 100000 |  |
| 12.6 | 181.6 |  | O=C(NC[C@]1(O)CC[C@H](COc2ccc(F)cc2)CC1)c1ccc(O)c(F)c1 [Example 66, 3-Fluoro-N-({trans-4-[(4-fluorophenoxy)methyl]-1-hydroxycyclohexyl}methyl)-4-hydroxybenzamide] | > 100000 |  |
| 11 | 174.3 |  | O=C(NC[C@]1(O)CC[C@H](COCc2ccccc2F)CC1)c1ccc(O)cc1 [Example 22, N-[(trans-4-{[(2-Fluorobenzyl)oxy]methyl}-1-hydroxycyclohexyl)methyl]-4-hydroxybenzamide] | > 100000 |  |
| 9.1 | 183.5 |  | O=C(NC[C@]1(O)CC[C@H](COc2ccccc2)CC1)c1ccc(O)c(F)c1 [Example 62, 3-Fluoro-4-hydroxy-N-{[trans-1-hydroxy-4-(phenoxymethyl)cyclohexyl]methyl}benzamide] | > 30000 |  |
| 7.5 |  |  | O=C(NC[C@@H]1CC[C@H](COc2ccccc2)CO1)c1ccc(O)cc1 [Example 36, (−)-4-Hydroxy-N-{[5R-(phenoxymethyl)tetrahydro-2H-pyran-2R-yl]methyl}benzamide] | 55200 |  |

| Compound | IC50 [1] [nM] | melting point [°C] | Ki ([1]; competition assay, rat forebrain P2 membranes, read-out: Ki value, binding affinity for the NR2B receptor) [nM] | IC50 [2] [nM] | IC50 [3] [nM] |
| --- | --- | --- | --- | --- | --- |
| O=C(NCC1(O)CCC(COCc2cccc(F)c2)CC1)c1ccc(O)c(F)c1 (stereo not drawn) [Example 50, 3-Fluoro-N-[(trans-4-{[(3-fluorobenzyl)oxy]methyl}-1-1-hydroxycyclohexyl)methyl]-hydroxybenzamide] | 27.5 |  |  |  | > 100000 |
